According to patent publication US11512079B2, “Heterocycle substituted pyridine derivative antifungal agents” (Amplyx Pharmaceuticals, Inc., priority 2017, dated 2022):
Values after ≈ are worked out from the molar mass of the structure shown.

Experiments:
Type in all cases: cell-based
[1] = system: Rhizomucor pusillus 46342; test: In vitro antifungal assay (Example IX), microdilution broth, MEC; conditions: minimum effective concentration (shortening of hyphae), 35° C., 40-48 h, RPMI1640
In short: (§1)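 Spore suspensions of A. fumigatus and R. pusillus adjusted to 1-2×10^4 spores/mL in RPMI1640 and exposed to compound dilutions prepared in DMSO, by broth microdilution. MEC taken as the lowest concentration shortening hyphae versus DMSO control wells, read as for echinocandins.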

[2] = system: Aspergillus fumigatus MYA3626; test: as above; conditions: minimum effective concentration (shortening of hyphae), 35° C., 40-48 h, RPMI1640
In short: as §1

[3] = system: Cryptococcus neoformans H99; test: In vitro antifungal assay (Example IX), microdilution broth, MIC; conditions: minimum inhibitory concentration (≥50% inhibition), 35° C., 72 h, RPMI1640
In short: (§2)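 CLSI broth microdilution in RPMI1640 with 2.5×10^3 cells/mL and final compound concentrations of 2-0.0019 μg/mL (1% DMSO). C. albicans 90028 plates were incubated at 35° C. for 40-48 h and C. neoformans H99 for 72 h. MIC was read as minimum inhibitory concentration, verified at 600 nm.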

Candida albicans 90028 = test: as above; conditions: minimum inhibitory concentration (≥50% inhibition), 35° C., 40-48 h, RPMI1640
In short: as §2

Cryptococcus gattii = test: as above; conditions: minimum inhibitory concentration (≥50% inhibition), 35° C., 72 h (Cryptococcus), RPMI1640
In short: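 Broth microdilution in RPMI1640 with 2.5×10^3 cells/mL inoculum; final compound concentrations were 2–0.0019 μg/mL, with 1% DMSO. Cryptococcus plates were incubated at 35 °C for 72 h, and growth was read at 600 nm to give the MIC.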

MIC [3] | MIC (Candida albicans 90028) | MIC (Cryptococcus gattii) | SMILES | minimal effective concentration [1] | minimal effective concentration [2]
0.01 to 0.1 µg/mL (≈ 0.0263 to 0.263 µM) | 0.01 to 0.1 µg/mL (≈ 0.0263 to 0.263 µM) | 0.1 to 1 µg/mL (≈ 0.263 to 2.63 µM) | Nc1ncccc1-c1cc(Cc2ccc(Oc3ccc(F)cc3F)nc2)no1 [compound 75, 3-(3-((6-(2,4-difluorophenoxy)pyridin-3-yl)methyl)isoxazol-5-yl)pyridin-2-amine] | 0.1 to 1 µg/mL | 0.01 to 0.1 µg/mL
0.01 to 0.1 µg/mL (≈ 0.0266 to 0.266 µM) | 0.01 to 0.1 µg/mL (≈ 0.0266 to 0.266 µM) | 0.1 to 1 µg/mL (≈ 0.266 to 2.66 µM) | Nc1ncccc1-c1cc(Cc2ccnc(OCc3ccccc3F)c2)no1 [Example 149, 3-(3-((2-((2-fluorobenzyl)oxy)pyridin-4-yl)methyl)isoxazol-5-yl)pyridin-2-amine] | > 1 µg/mL | 0.01 to 0.1 µg/mL
0.01 to 0.1 µg/mL (≈ 0.0277 to 0.277 µM) | 0.01 to 0.1 µg/mL (≈ 0.0277 to 0.277 µM) | 0.01 to 0.1 µg/mL (≈ 0.0277 to 0.277 µM) | Nc1ncccc1-c1cc(Cc2ccc(Cc3ccnc(F)c3)cc2)no1 [compound 19, 3-(3-(4-((2-fluoropyridin-4-yl)methyl)benzyl)isoxazol-5-yl)pyridin-2-amine] | 0.1 to 1 µg/mL | 0.01 to 0.1 µg/mL
0.01 to 0.1 µg/mL (≈ 0.0277 to 0.277 µM) | 0.01 to 0.1 µg/mL (≈ 0.0277 to 0.277 µM) | 0.01 to 0.1 µg/mL (≈ 0.0277 to 0.277 µM) | Nc1ncccc1-c1cc(Cc2ccc(Cc3cccnc3F)cc2)no1 [compound 69, 3-(3-(4-((2-fluoropyridin-3-yl)methyl)benzyl)isoxazol-5-yl)pyridin-2-amine] | 0.1 to 1 µg/mL | 0.01 to 0.1 µg/mL
0.1 to 1 µg/mL (≈ 0.277 to 2.77 µM) | 0.1 to 1 µg/mL (≈ 0.277 to 2.77 µM) | 0.1 to 1 µg/mL (≈ 0.277 to 2.77 µM) | Nc1ncccc1-c1cc(Cc2ccc(CCC3CCCCC3)cc2)no1 [compound 100, 3-(3-(4-(2-cyclohexylethyl)benzyl)isoxazol-5-yl)pyridin-2-amine] | > 1 µg/mL | 0.1 to 1 µg/mL
≤ 0.01 µg/mL | 0.01 to 0.1 µg/mL (≈ 0.0276 to 0.276 µM) | ≤ 0.01 µg/mL | Nc1ncccc1-c1cc(Cc2ccc(Oc3ncccc3F)cc2)no1 [compound 235, 3-(3-(4-((3-fluoropyridin-2-yl)oxy)benzyl)isoxazol-5-yl)pyridin-2-amine] | 0.1 to 1 µg/mL | 0.01 to 0.1 µg/mL
0.1 to 1 µg/mL (≈ 0.264 to 2.64 µM) | 0.1 to 1 µg/mL (≈ 0.264 to 2.64 µM) | 0.1 to 1 µg/mL (≈ 0.264 to 2.64 µM) | Nc1ncccc1-c1cc(Cc2ccc(Nc3cc(F)ccc3F)nc2)no1 [compound 244, 5-((5-(2-aminopyridin-3-yl)isoxazol-3-yl)methyl)-N-(2,5-difluorophenyl)pyridin-2-amine] | > 1 µg/mL | 0.1 to 1 µg/mL
0.01 to 0.1 µg/mL (≈ 0.0228 to 0.228 µM) | 0.1 to 1 µg/mL (≈ 0.228 to 2.28 µM) | 0.01 to 0.1 µg/mL (≈ 0.0228 to 0.228 µM) | Nc1ncccc1-c1cc(Cc2ccc(OCc3ccnc(Br)c3)nc2)no1 [compound 195, 3-(3-((6-((2-bromopyridin-4-yl)methoxy)pyridin-3-yl)methyl)isoxazol-5-yl)pyridin-2-amine] | > 1 µg/mL | 0.1 to 1 µg/mL
0.01 to 0.1 µg/mL (≈ 0.0267 to 0.267 µM) | 0.01 to 0.1 µg/mL (≈ 0.0267 to 0.267 µM) | 0.01 to 0.1 µg/mL (≈ 0.0267 to 0.267 µM) | Nc1ncccc1-c1cc(Cc2ccc(CNc3cccc(F)c3)cc2)no1 [compound 107, 3-(3-(4-(((3-fluorophenyl)amino)methyl)benzyl)isoxazol-5-yl)pyridin-2-amine] | 0.01 to 0.1 µg/mL | 0.01 to 0.1 µg/mL
0.1 to 1 µg/mL (≈ 0.291 to 2.91 µM) | 0.01 to 0.1 µg/mL (≈ 0.0291 to 0.291 µM) | 0.01 to 0.1 µg/mL (≈ 0.0291 to 0.291 µM) | Nc1ncccc1-c1cc(Cc2ccc(Nc3ccccc3)nc2)no1 [compound 58, 5-((5-(2-aminopyridin-3-yl)isoxazol-3-yl)methyl)-N-phenylpyridin-2-amine] | 0.1 to 1 µg/mL | 0.1 to 1 µg/mL
0.01 to 0.1 µg/mL (≈ 0.0254 to 0.254 µM) | 0.01 to 0.1 µg/mL (≈ 0.0254 to 0.254 µM) | 0.1 to 1 µg/mL (≈ 0.254 to 2.54 µM) | Nc1ncccc1-c1cc(Cc2ccc(COc3cc(F)ccc3F)cc2)no1 [compound 189, 3-(3-(4-((2,5-difluorophenoxy)methyl)benzyl)isoxazol-5-yl)pyridin-2-amine] | > 1 µg/mL | 0.01 to 0.1 µg/mL
0.01 to 0.1 µg/mL (≈ 0.026 to 0.26 µM) | 0.1 to 1 µg/mL (≈ 0.26 to 2.6 µM) | 0.01 to 0.1 µg/mL (≈ 0.026 to 0.26 µM) | Nc1ncccc1-c1cc(Cc2ccc(Oc3nc(Cl)cs3)cc2)no1 [compound 240, 3-(3-(4-((4-chlorothiazol-2-yl)oxy)benzyl)isoxazol-5-yl)pyridin-2-amine] | 0.1 to 1 µg/mL | 0.1 to 1 µg/mL
0.01 to 0.1 µg/mL (≈ 0.0293 to 0.293 µM) | 0.1 to 1 µg/mL (≈ 0.293 to 2.93 µM) | ≤ 0.01 µg/mL | Nc1ncccc1-c1cc(Cc2ccc(Cc3ccccc3)cc2)no1 [compound 8, 3-(3-(4-benzylbenzyl)isoxazol-5-yl)pyridin-2-amine] | 0.1 to 1 µg/mL | 0.1 to 1 µg/mL
0.01 to 0.1 µg/mL (≈ 0.0254 to 0.254 µM) | 0.01 to 0.1 µg/mL (≈ 0.0254 to 0.254 µM) | 0.1 to 1 µg/mL (≈ 0.254 to 2.54 µM) | Nc1ncccc1-c1cc(Cc2ccc(OCc3cccc(Cl)n3)nc2)no1 [compound 222, 3-(3-((6-((6-chloropyridin-2-yl)methoxy)pyridin-3-yl)methyl)isoxazol-5-yl)pyridin-2-amine] | > 1 µg/mL | 0.01 to 0.1 µg/mL
0.01 to 0.1 µg/mL (≈ 0.0251 to 0.251 µM) | 0.1 to 1 µg/mL (≈ 0.251 to 2.51 µM) | 0.01 to 0.1 µg/mL (≈ 0.0251 to 0.251 µM) | Nc1ncccc1-c1cc(Cc2ccc(Oc3nc(F)c(F)cc3F)cc2)no1 [compound 241, 3-(3-(4-((3,5,6-trifluoropyridin-2-yl)oxy)benzyl)isoxazol-5-yl)pyridin-2-amine] | 0.1 to 1 µg/mL | 0.01 to 0.1 µg/mL
0.01 to 0.1 µg/mL (≈ 0.0266 to 0.266 µM) | 0.01 to 0.1 µg/mL (≈ 0.0266 to 0.266 µM) | 0.01 to 0.1 µg/mL (≈ 0.0266 to 0.266 µM) | Nc1ncccc1-c1cc(Cc2ccc(OCc3ccccc3F)cc2)no1 [Example 141, 3-(3-(4-((2-fluorobenzyl)oxy)benzyl)isoxazol-5-yl)pyridin-2-amine] | 0.1 to 1 µg/mL | 0.01 to 0.1 µg/mL
0.1 to 1 µg/mL (≈ 0.252 to 2.52 µM) | 0.1 to 1 µg/mL (≈ 0.252 to 2.52 µM) | 0.1 to 1 µg/mL (≈ 0.252 to 2.52 µM) | Nc1ncccc1-c1cc(Cc2cnc(Nc3c(F)cccc3F)c(F)c2)no1 [compound 253, 5-((5-(2-aminopyridin-3-yl)isoxazol-3-yl)methyl)-N-(2,6-difluorophenyl)-3-fluoropyridin-2-amine] | > 1 µg/mL | 0.1 to 1 µg/mL
0.1 to 1 µg/mL (≈ 0.268 to 2.68 µM) | 0.1 to 1 µg/mL (≈ 0.268 to 2.68 µM) | 0.1 to 1 µg/mL (≈ 0.268 to 2.68 µM) | CC(Oc1ccc(Cc2cc(-c3cccnc3N)on2)cn1)c1ccccn1 (stereo not shown) [compound 55, 3-(3-((6-(1-(pyridin-2-yl)ethoxy)pyridin-3-yl)methyl)isoxazol-5-yl)pyridin-2-amine] | > 1 µg/mL | 0.1 to 1 µg/mL
0.1 to 1 µg/mL (≈ 0.29 to 2.9 µM) | 0.1 to 1 µg/mL (≈ 0.29 to 2.9 µM) | 0.1 to 1 µg/mL (≈ 0.29 to 2.9 µM) | Cn1cc(Cc2ccc(Cc3cc(-c4cccnc4N)on3)cc2)cn1 [compound 11, 3-(3-(4-((1-methyl-1H-pyrazol-4-yl)methyl)benzyl)isoxazol-5-yl)pyridin-2-amine] | > 1 µg/mL | 0.01 to 0.1 µg/mL
> 1 µg/mL | > 1 µg/mL | > 1 µg/mL | Nc1ncccc1-c1cc(Cc2ccc(-c3ccncc3)cc2)no1 [compound 204, 3-(3-(4-(pyridin-4-yl)benzyl)isoxazol-5-yl)pyridin-2-amine] | > 1 µg/mL | > 1 µg/mL
0.1 to 1 µg/mL (≈ 0.266 to 2.66 µM) | 0.01 to 0.1 µg/mL (≈ 0.0266 to 0.266 µM) | > 1 µg/mL | Nc1ncccc1-c1cc(Cc2cnc(OCc3ccccc3)c(F)c2)no1 [compound 257, 3-(3-((6-(benzyloxy)-5-fluoropyridin-3-yl)methyl)isoxazol-5-yl)pyridin-2-amine] | 0.1 to 1 µg/mL | 0.01 to 0.1 µg/mL
0.01 to 0.1 µg/mL (≈ 0.0266 to 0.266 µM) | 0.01 to 0.1 µg/mL (≈ 0.0266 to 0.266 µM) | 0.01 to 0.1 µg/mL (≈ 0.0266 to 0.266 µM) | Nc1ncccc1-c1cc(Cc2ccc(OCc3ccccc3F)nc2)no1 [compound 127, 3-(3-((6-((2-fluorobenzyl)oxy)pyridin-3-yl)methyl)isoxazol-5-yl)pyridin-2-amine] | 0.1 to 1 µg/mL | ≤ 0.01 µg/mL
0.01 to 0.1 µg/mL (≈ 0.0264 to 0.264 µM) | 0.01 to 0.1 µg/mL (≈ 0.0264 to 0.264 µM) | 0.01 to 0.1 µg/mL (≈ 0.0264 to 0.264 µM) | Nc1ncccc1-c1cc(Cc2ccc(Oc3cccc(Cl)c3)nc2)no1 [Example 161, 3-(3-((6-(3-chlorophenoxy)pyridin-3-yl)methyl)isoxazol-5-yl)pyridin-2-amine] | 0.1 to 1 µg/mL | 0.01 to 0.1 µg/mL
0.1 to 1 µg/mL (≈ 0.279 to 2.79 µM) | 0.01 to 0.1 µg/mL (≈ 0.0279 to 0.279 µM) | 0.01 to 0.1 µg/mL (≈ 0.0279 to 0.279 µM) | Nc1ncccc1-c1cc(Cc2ccc(COc3cccnc3)cc2)no1 [compound 105, 3-(3-(4-((pyridin-3-yloxy)methyl)benzyl)isoxazol-5-yl)pyridin-2-amine] | > 1 µg/mL | 0.1 to 1 µg/mL
0.1 to 1 µg/mL (≈ 0.252 to 2.52 µM) | 0.1 to 1 µg/mL (≈ 0.252 to 2.52 µM) | 0.1 to 1 µg/mL (≈ 0.252 to 2.52 µM) | Nc1ncccc1-c1cc(Cc2ccc(Oc3ncc(Cl)cc3F)cc2)no1 [compound 236, 3-(3-(4-((5-chloro-3-fluoropyridin-2-yl)oxy)benzyl)isoxazol-5-yl)pyridin-2-amine] | 0.1 to 1 µg/mL | 0.1 to 1 µg/mL
0.1 to 1 µg/mL (≈ 0.276 to 2.76 µM) | 0.1 to 1 µg/mL (≈ 0.276 to 2.76 µM) | > 1 µg/mL | Nc1ncccc1-c1cc(Cc2ccc(OCCn3cccn3)nc2)no1 [Example 156, 3-(3-((6-(2-(1H-pyrazol-1-yl)ethoxy)pyridin-3-yl)methyl)isoxazol-5-yl)pyridin-2-amine] | > 1 µg/mL | > 1 µg/mL
